# Target: ATP-binding cassette sub-family C member 2 (Homo sapiens, UniProt Q92887)
# Assay: TP_TRANSPORTER: secretion into apical vacuoles in Hep G2 cells
# Type: functional, cell-based
# Conditions: hepg2
# Chain of ATP-binding cassette sub-family C member 2 (Q92887 whole entry): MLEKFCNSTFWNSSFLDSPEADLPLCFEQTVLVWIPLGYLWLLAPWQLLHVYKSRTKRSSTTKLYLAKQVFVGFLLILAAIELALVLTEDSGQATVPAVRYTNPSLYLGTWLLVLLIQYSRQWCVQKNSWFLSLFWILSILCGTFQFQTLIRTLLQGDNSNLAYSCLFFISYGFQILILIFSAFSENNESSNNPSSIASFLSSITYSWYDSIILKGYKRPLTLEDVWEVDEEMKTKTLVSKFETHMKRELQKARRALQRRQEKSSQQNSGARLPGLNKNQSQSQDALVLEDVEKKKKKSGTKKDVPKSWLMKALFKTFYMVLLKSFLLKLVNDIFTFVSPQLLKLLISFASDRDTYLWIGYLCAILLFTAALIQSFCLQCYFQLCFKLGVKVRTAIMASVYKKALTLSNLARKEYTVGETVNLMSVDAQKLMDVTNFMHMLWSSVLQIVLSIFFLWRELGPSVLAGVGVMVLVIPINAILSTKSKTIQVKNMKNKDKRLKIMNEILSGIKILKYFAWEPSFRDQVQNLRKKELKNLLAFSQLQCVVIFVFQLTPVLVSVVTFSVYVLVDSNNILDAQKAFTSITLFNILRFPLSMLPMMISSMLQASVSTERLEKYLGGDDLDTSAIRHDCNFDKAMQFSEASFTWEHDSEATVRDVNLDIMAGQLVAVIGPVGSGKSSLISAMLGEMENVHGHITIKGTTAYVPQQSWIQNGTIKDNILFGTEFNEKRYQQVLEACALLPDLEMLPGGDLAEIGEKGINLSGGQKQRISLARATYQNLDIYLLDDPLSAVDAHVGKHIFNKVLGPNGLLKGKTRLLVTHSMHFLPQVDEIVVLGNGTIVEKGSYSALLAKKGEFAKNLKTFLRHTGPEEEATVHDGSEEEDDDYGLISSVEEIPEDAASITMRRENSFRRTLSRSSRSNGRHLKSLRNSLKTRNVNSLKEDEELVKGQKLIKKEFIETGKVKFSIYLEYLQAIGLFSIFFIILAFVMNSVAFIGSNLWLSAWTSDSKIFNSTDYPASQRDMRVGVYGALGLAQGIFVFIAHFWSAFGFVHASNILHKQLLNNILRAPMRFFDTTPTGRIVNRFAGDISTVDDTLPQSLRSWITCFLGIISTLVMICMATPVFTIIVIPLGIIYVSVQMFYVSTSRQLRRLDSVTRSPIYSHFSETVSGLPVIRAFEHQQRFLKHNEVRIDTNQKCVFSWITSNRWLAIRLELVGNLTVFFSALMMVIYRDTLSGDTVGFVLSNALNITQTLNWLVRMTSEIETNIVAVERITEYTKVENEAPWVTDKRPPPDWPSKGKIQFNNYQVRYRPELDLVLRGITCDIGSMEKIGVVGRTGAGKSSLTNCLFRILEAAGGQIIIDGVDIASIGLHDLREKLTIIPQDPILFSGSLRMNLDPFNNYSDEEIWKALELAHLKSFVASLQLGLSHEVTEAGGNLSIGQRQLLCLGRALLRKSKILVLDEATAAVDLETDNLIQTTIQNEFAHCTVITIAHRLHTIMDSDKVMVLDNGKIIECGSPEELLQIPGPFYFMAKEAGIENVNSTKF
row,Compound,Activity
1,CC(CCC(=O)NC(CCCCNc1ccc([N+](=O)[O-])c2nonc12)COO)[C@H]1CC[C@H]2[C@@H]3[C@H](O)CC4C[C@H](O)CC[C@]4(C)[C@H]3CC[C@]12C (some centres undefined),substrate [+]
2,CC(CCC(=O)NCC(=O)Nc1ccc(-c2c3ccc(=O)cc-3oc3cc(O)ccc23)c(C(=O)O)c1)[C@H]1CC[C@H]2[C@@H]3[C@H](O)CC4C[C@H](O)CC[C@]4(C)[C@H]3C[C@H](O)[C@]12C (some centres undefined),substrate [+]
3,Cc1ccc(N(CC(=O)O)CC(=O)O)c(OCCOc2cc(-c3c4cc(Cl)c(=O)cc-4oc4cc(O)c(Cl)cc34)ccc2N(CC(=O)O)CC(=O)O)c1,substrate [+]
4,O=C1OC2(c3ccc(O)cc3Oc3cc(O)ccc32)c2ccccc21 [FLUORESCEIN],substrate [+]
